Experiments:
[1] = Dissolving test in ethanol/water, time to complete dissolution; assay type: physicochemical; settings: 5 g in 95 g ethanol/water (equal parts by weight), 20° C., stirred, visual determination
Description: The different rates of dissolution of a solids composition according to the invention of Example 1a above and of forms of l-menthol that are not in accordance with the invention were compared.
To this end, 5 g of l-menthol or 5 g of the l-menthol-containing solids composition according to the invention of Example 1a were added to 95 g of a mixture, kept at a constant temperature of 20° C., of equal parts by weight of ethanol and water, and the time taken for the menthol or the menthol-containing solids composition to dissolve completely (visual determination) was calculated.
The dissolving test was carried out in a glass beaker having a diameter of 5 cm and a filling height of 7 cm. The contents of the glass beaker were stirred during the dissolving test in each case using a magnetic stirring bead having a length of 4 cm with a magnetic stirrer speed of 4 revolutions per second. The temperature was monitored with a Pt-100 thermometer which was immersed to a depth of 5 cm in the liquid, was located at a distance of 1 cm from the wall of the glass beaker and at the same time served as flow breaker.
The size of the crystals corresponded to the typical (commercial) crystal geometry of natural l-menthol.

[2] = cited from earlier work

| Structure (SMILES) | Time to complete dissolution [1] [s] | other results |
| --- | --- | --- |
| CC(C)[C@@H]1CC[C@@H](C)C[C@H]1O [Menthol pellets according to WO 03/101924, Example 1] [l-menthol] | 504 |  |
| CC(C)[C@@H]1CC[C@@H](C)C[C@H]1O [flaked l-menthol, l-menthol] |  | adhesion and clumping ([2]; after 24 hours, as described in U.S. Pat. No. 3,064,311): adhesion and clumping of the flakes |
| CC1CCC(C(C)C)C(O)C1 (stereo not drawn) [menthol pressed articles, menthol] |  | clumping and caking ([2]; stored for prolonged periods of over three months): gradually clump and cake together |

Now from value to compound, other results behind:

| Time to complete dissolution [1] [s] | Structure (SMILES) | other results |
| --- | --- | --- |
| 280 | CC(C)[C@@H]1CC[C@@H](C)C[C@H]1O [Clumped menthol crystals, l-menthol] |  |
| 255 | CC(C)[C@@H]1CC[C@@H](C)C[C@H]1O [Crystals of natural menthol, l-menthol] |  |
| 170 | CC(C)[C@@H]1CC[C@@H](C)C[C@H]1O [Menthol crystals from Example 1, l-menthol] |  |

— patent publication US8524257B2, “Menthol-containing solids composition” (Symrise AG, priority 2005, dated 2013)
